Numbers after ± are expanded uncertainties.
Settings: Liquid, Vibrating tube method

COC [dimethyl ether]
mass density [kg/m3]
Settings	293.84 K	303.45 K	313.18 K	323 K	332.83 K	343.01 K	353 K	362.91 K	372.94 K
1000 kPa	669.27 ± 1.3	653.54 ± 1.3	–	–	–	–	–	–	–
3000 kPa	673.21 ± 1.3	657.94 ± 1.3	641.72 ± 1.4	624.46 ± 1.4	605.7 ± 1.5	584.39 ± 1.6	560.89 ± 1.8	–	–
5000 kPa	676.85 ± 1.3	662.06 ± 1.3	646.5 ± 1.3	630.01 ± 1.4	612.33 ± 1.4	592.63 ± 1.5	571.39 ± 1.6	547.69 ± 1.8	519.39 ± 2
10000 kPa	685.08 ± 1.3	671.42 ± 1.3	657.11 ± 1.3	642.19 ± 1.4	626.46 ± 1.4	609.39 ± 1.4	591.7 ± 1.5	572.99 ± 1.6	552.4 ± 1.8
15000 kPa	692.61 ± 1.3	679.73 ± 1.3	666.38 ± 1.3	652.54 ± 1.3	638.17 ± 1.4	622.87 ± 1.4	607.19 ± 1.4	591.04 ± 1.5	573.78 ± 1.6
20000 kPa	699.44 ± 1.3	687.19 ± 1.3	674.68 ± 1.3	661.65 ± 1.3	648.33 ± 1.4	634.17 ± 1.4	619.91 ± 1.4	605.41 ± 1.4	590.14 ± 1.5
25000 kPa	705.75 ± 1.3	694.14 ± 1.3	682.06 ± 1.3	669.81 ± 1.3	657.3 ± 1.4	644.06 ± 1.4	630.86 ± 1.4	617.51 ± 1.4	603.55 ± 1.4
30000 kPa	711.53 ± 1.3	700.39 ± 1.3	688.96 ± 1.3	677.2 ± 1.3	665.34 ± 1.4	652.87 ± 1.4	640.46 ± 1.4	627.99 ± 1.4	615.07 ± 1.4
35000 kPa	717 ± 1.3	706.33 ± 1.3	695.3 ± 1.3	684.06 ± 1.4	672.7 ± 1.4	660.84 ± 1.4	649.09 ± 1.4	637.26 ± 1.4	625.15 ± 1.4
40000 kPa	722.21 ± 1.3	711.79 ± 1.3	701.19 ± 1.4	690.37 ± 1.4	679.54 ± 1.4	668.11 ± 1.4	656.92 ± 1.4	645.67 ± 1.4	634.21 ± 1.4
50000 kPa	731.68 ± 1.4	721.98 ± 1.4	711.96 ± 1.4	701.9 ± 1.4	691.67 ± 1.4	681.15 ± 1.4	670.8 ± 1.4	660.45 ± 1.4	649.98 ± 1.5
60000 kPa	740.35 ± 1.4	731.17 ± 1.4	721.63 ± 1.4	712.04 ± 1.4	702.5 ± 1.4	692.63 ± 1.5	682.9 ± 1.5	673.27 ± 1.5	663.51 ± 1.5
70000 kPa	748.4 ± 1.4	739.59 ± 1.4	730.55 ± 1.4	721.44 ± 1.5	712.29 ± 1.5	702.89 ± 1.5	693.76 ± 1.5	684.63 ± 1.5	675.48 ± 1.6

Source: the NIST ThermoML archive (doi:10.1016/j.jct.2011.04.011)
